Measurements: PMC8929351 (Pharmacology Research & Perspectives, 2022)
“Also recorded” adds a separate entry of the source.

Columns and labels:
[1] = target: human µ receptor wild‐type (WT) (Homo sapiens, UniProt P35372); assay: cell-based; format: cell-based
rat µ receptor [2] = conditions: cited from earlier work
human µ receptor N40D = human µ receptor N40D (Homo sapiens, UniProt P35372, N40D); assay: cell-based; format: cell-based
human µ receptor A6V = human µ receptor A6V (Homo sapiens, UniProt P35372, A6V); assay: cell-based; format: cell-based
Chain of human µ receptor A6V (P35372 whole entry A6V): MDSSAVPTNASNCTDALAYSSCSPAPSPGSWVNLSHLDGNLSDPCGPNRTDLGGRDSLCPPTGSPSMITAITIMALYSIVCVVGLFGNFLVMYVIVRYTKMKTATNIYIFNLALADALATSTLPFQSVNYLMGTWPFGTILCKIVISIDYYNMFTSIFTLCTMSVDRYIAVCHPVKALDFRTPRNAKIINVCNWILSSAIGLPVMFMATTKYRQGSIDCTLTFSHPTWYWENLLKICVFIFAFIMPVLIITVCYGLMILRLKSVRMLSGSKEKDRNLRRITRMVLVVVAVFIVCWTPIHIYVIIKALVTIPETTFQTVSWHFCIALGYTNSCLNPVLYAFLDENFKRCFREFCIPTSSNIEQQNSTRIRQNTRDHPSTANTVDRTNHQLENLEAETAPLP

Somatostatin receptors = format: cell-based, Mouse; conditions: 30 µM tapentadol; SRIF 100 nM; AtT20 WT cells
GIRK1/2 channel = target: T1, GIRK1/2 channel (Mus musculus, UniProt P48542+P63250); format: cell-based; conditions: 30 µM tapentadol, AtT20 WT cells
T1 sequence (P63250 1-501): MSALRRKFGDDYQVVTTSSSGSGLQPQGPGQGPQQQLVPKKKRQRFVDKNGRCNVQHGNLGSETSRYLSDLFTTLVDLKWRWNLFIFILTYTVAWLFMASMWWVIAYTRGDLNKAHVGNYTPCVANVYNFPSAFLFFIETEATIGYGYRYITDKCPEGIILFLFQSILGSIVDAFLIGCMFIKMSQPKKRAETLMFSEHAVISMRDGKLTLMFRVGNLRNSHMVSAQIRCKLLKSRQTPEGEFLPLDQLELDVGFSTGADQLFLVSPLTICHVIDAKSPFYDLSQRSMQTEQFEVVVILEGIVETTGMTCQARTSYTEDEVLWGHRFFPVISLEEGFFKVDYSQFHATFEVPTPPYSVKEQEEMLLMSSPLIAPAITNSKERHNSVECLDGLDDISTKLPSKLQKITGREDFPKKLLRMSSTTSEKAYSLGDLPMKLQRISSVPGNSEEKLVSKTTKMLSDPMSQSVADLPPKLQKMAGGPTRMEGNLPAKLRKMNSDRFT
T1 sequence (P48542 1-425): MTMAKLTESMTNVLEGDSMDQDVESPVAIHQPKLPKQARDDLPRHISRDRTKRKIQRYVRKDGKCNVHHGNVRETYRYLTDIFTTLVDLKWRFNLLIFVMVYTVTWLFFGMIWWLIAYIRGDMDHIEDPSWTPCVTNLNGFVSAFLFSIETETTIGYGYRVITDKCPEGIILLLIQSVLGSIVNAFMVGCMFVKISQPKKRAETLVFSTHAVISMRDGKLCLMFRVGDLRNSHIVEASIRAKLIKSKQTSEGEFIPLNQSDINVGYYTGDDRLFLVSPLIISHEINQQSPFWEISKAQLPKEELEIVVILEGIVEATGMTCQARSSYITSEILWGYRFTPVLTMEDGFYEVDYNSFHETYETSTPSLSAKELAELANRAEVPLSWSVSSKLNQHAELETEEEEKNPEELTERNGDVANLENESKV

rat µ receptor [3] = conditions: cited from earlier work; remark: listed apart in the source
[4] = test system: noradrenaline transporter; conditions: read-out: EC50 to inhibit noradrenaline transporter; LC neurons; cited from earlier work
GIRK channels = conditions: 100 µM; cells clamped at −60 mV; cited from earlier work
[5] = tapentadol‐related fatality; cited from earlier work
human µ receptor = conditions: GTPγS binding; cited from earlier work
OPRM1 knock‐out mice = conditions: dose highly effective in wild‐type mouse; cited from earlier work

Chain of human µ receptor wild‐type (WT) (P35372 whole entry): as the sequence (P35372 whole entry A6V) above, with V6A counted along it
Chain of human µ receptor N40D (P35372 whole entry N40D): as the sequence (P35372 whole entry A6V) above, with V6A, N40D counted along it

C[C@@H](NC(=O)[C@@H](N)Cc1ccc(O)cc1)C(=O)NCC(=O)N(C)[C@@H](Cc1ccccc1)C(=O)NCCO [DAMGO, Tyr‐D‐Ala‐Gly‐N‐MePhe‐Gly‐ol acetate]
effect to activate the GIRK channel in variants compared to WT [1]: not different
Operational tau (rat µ receptor [2]): 28.5 ± 1.1

COc1ccc2c3c1O[C@H]1C(=O)CC[C@@]4(O)[C@@H](C2)N(C)CC[C@]314 [Oxycodone]
Operational tau [1]: 13.9 ± 2
Operational tau (rat µ receptor [2]): 5.1 ± 0.2

CC[C@@H](c1cccc(O)c1)[C@@H](C)CN(C)C [Tapentadol]
response at the highest concentration compared with plateau ([1]; 30 µM, undepleted conditions): smaller response
Relative tau (intrinsic efficacy relative to DAMGO) ([1]; WT, AtT20 cells, operational model, β‐CNA 100 nM 20 min, mean ± SEM): 0.05 ± 0.01
Kd ([1]; pKA, WT, operational (functional) affinity): 3.98 µM
Kd (human µ receptor N40D): 3.98 µM
Relative tau (intrinsic efficacy relative to DAMGO) (human µ receptor N40D; N40D, AtT20 cells, operational model, β‐CNA 100 nM 20 min, mean ± SEM): 0.05 ± 0.02
Kd (human µ receptor A6V): 4.47 µM
Relative tau (intrinsic efficacy relative to DAMGO) (human µ receptor A6V; A6V, AtT20 cells, operational model, β‐CNA 100 nM 20 min, mean ± SEM): 0.04 ± 0.01
effect on response of SRIF (Somatostatin receptors): significant reduction; also recorded: decreased the maximal response
effect on response of ML297 (GIRK1/2 channel): significant reduction; also recorded: decreased the maximal response
intrinsic activity (rat µ receptor [3]; GIRK currents, rat LC neurons): lower intrinsic activity than morphine and oxycodone
EC50 (rat µ receptor [3]; read-out: EC50 to activate µ receptor, LC neurons): 1.8 µM
EC50 [4]: 2.3 µM
blockage of GIRK channels (GIRK channels): no blockage of GIRK channels
serum concentration [5]: 3.5 to 25 µM
in vitro efficacy (human µ receptor): same efficacy as morphine
analgesic effect (OPRM1 knock‐out mice): reduced yet significant analgesia
